# “Also recorded” adds a separate entry of the source.
# Legend:
# [1] = biological target: DgcA (CC3285) diguanylate cyclase (Caulobacter crescentus, UniProt Q9A3B9); test: FRET-based DGC activity assay, dose-response; assay type: biochemical; conditions: for Hill coeff: from fitting the concentration-response curves; for binding affinity towards DgcA / mode of modulation of DgcA activity: in words; for remaining DGC activity of the enzyme-inhibitor-substrate complex: compound saturating concentration
# [2] = system: mCYPet-YcgR-mYPet c-di-GMP biosensor (PilZ protein YcgR); conditions: cited from earlier work; for biosensor FRET response: specificity for c-di-GMP
# [3] = IC50 ± SD, Table 2, negative and silent allosteric modulators
# [4] = IC50 (binding affinity) against DgcA, running text and figure legends
Structure (SMILES),"IC50 [1, 3]","% Activity ESI (DGC activity of the enzyme-substrate-inhibitor complex) ([1]; Table 2, compound saturation)",Hill coeff ([1]; Table 2),binding affinity towards DgcA [1],mode of modulation of DgcA activity [1],remaining DGC activity of the enzyme-inhibitor-substrate complex [1],further results
"O=C(OCC(=O)N1CCCC1=O)c1ccc2nccnc2c1 [Compound 1o, 2-oxo-2-(2-oxopyrrolidin-1-yl)ethyl quinoxaline-6-carboxylate]",344 ± 19.9 µM,0.0 ± 0.7%,2.22 ± 0.16,strongly reduced binding affinities,negative modulators,–,–
"O=C(OCC(=O)N1CCCC1=O)c1ccc2[nH]ccc2c1 [Compound 1k, 2-oxo-2-(2-oxopyrrolidin-1-yl)ethyl 1H-indole-5-carboxylate]",324 ± 39 µM,6.3 ± 0.4%,2.37 ± 0.30,strongly reduced binding affinities,negative modulators,–,–
"Cn1ccc2cc(C(=O)OCC(=O)N3CCCC3=O)ccc21 [Compound 1l, 2-oxo-2-(2-oxopyrrolidin-1-yl)ethyl 1-methyl-1H-indole-5-carboxylate]",300 ± 37.7 µM,–,–,strongly reduced binding affinities,negative modulators,–,–
"Cc1nc2ccc(C(=O)OCC(=O)N3CCCC3=O)cc2s1 [Compound 1i, 2-oxo-2-(2-oxopyrrolidin-1-yl)ethyl 2-methylbenzo[d]thiazole-6-carboxylate]",52.9 ± 10.7 µM,68.1 ± 8.8%,2.72 ± 1.28,–,–,–,–
Nc1nc2c(ncn2[C@@H]2O[C@H](COP(=O)(O)OP(=O)(O)OP(=O)(O)O)[C@@H](O)[C@H]2O)c(=O)[nH]1 [guanosine 5-triphosphate],–,–,–,–,–,–,biosensor FRET response [2]: no detectable response
"O=C(OCC(=O)N1CCCC1=O)c1ccc2ncsc2c1 [Compound 1, [2-oxo-2-(2-oxopyrrolidin-1-yl)ethyl] 1,3-benzothiazole-6-carboxylate]",–,–,–,–,complete inhibition; also recorded: complete inhibitor; also recorded: complete negative allosteric modulator,1.4%,"IC50 [1, 4]: < 10 µM; IC50 ([1]; IC50 ± SD, Table 1, 20 nM DgcA, 20 μM GTP, 25 °C, 1% DMSO): 4 ± 0.2 µM; Hill coeff ([1]; Table 1): 2.34 ± 0.19; % Activity ESI (DGC activity of the enzyme-substrate-inhibitor complex) ([1]; Table 1, inhibitor saturation): 1.40 ± 0.1%"
"O=C(OCC(=O)N1CCCC1=O)c1ccccc1 [Compound 1h, 2-oxo-2-(2-oxopyrrolidin-1-yl)ethyl benzoate]",–,117.9 ± 1.4%,2.02 ± 0.19,–,positive modulators; also recorded: positive allosteric regulator,118%,AC50 [1]: 238 ± 72 µM
"CC(OC(=O)c1ccc2ncsc2c1)C(=O)N1CCCC1=O (stereo not drawn) [Compound 1t, 1-oxo-1-(2-oxopyrrolidin-1-yl)propan-2-yl benzo[d]thiazole-6-carboxylate]",–,–,–,completely abolished binding affinity,–,–,–
"Cc1ccc(C)c(OCCCC(=O)Nc2ccc(N3CCOCC3)cc2)c1 [Compound 2, 4-(2,5-dimethylphenoxy)-N-(4-morpholin-4-ylphenyl)butanamide]",–,–,–,–,partial inhibitor,31.4%,"IC50 [1, 4]: < 10 µM; IC50 ([1]; IC50 ± SD, Table 3, negative and silent allosteric modulators): 6.4 ± 0.5 µM; % Activity ESI (DGC activity of the enzyme-substrate-inhibitor complex) ([1]; Table 3, compound saturation): 31.4 ± 1.3%; Hill coeff ([1]; Table 3): 1.36 ± 0.13"
Nc1nc2c(ncn2[C@@H]2O[C@@H]3COP(=O)(O)O[C@H]3[C@H]2O)c(=O)[nH]1 [cyclic GMP],–,–,–,–,–,–,biosensor FRET response [2]: no detectable response
"O=C(OCC(=O)N1CCCC1=O)c1ccc2ncoc2c1 [Compound 1g, 2-oxo-2-(2-oxopyrrolidin-1-yl)ethyl benzo[d]oxazole-6-carboxylate]",3.1 ± 0.7 µM,87.7 ± 4.2%,2.35 ± 0.82,–,silent allosteric modulators; also recorded: silent allosteric regulator,87.7%,–
"O=C(NCC(=O)N1CCCC1=O)c1ccc2ncsc2c1 [Compound 1s, N-(2-oxo-2-(2-oxopyrrolidin-1-yl)ethyl)-benzo[d]thiazole-6-carboxamide]",–,–,–,–,partial inhibitor,48%,"IC50 [1, 4]: 31.6 µM"
"CN(C)c1ccc(C(=O)OCC(=O)N2CCCC2=O)cc1 [Compound 1q, 2-oxo-2-(2-oxopyrrolidin-1-yl)ethyl 4-(dimethylamino)benzoate]",–,176.1 ± 3.3%,2.51 ± 0.68,–,positive modulators,176%,AC50 [1]: 222 ± 85.6 µM
"Nc1nc2c(ncn2[C@@H]2O[C@@H]3COP(=O)(O)O[C@H]4[C@@H](O)[C@H](n5cnc6c(=O)[nH]c(N)nc65)O[C@@H]4COP(=O)(O)O[C@H]3[C@H]2O)c(=O)[nH]1 [c-di-GMP, cyclic diguanosine monophosphate]",–,–,–,–,–,–,"Kd ([2]; read-out: binding constant (KD) of the biosensor for c-di-GMP, 25°C): 0.198 µM"
"O=C(OCC(=O)N1CCCC1=O)c1ccc([N+](=O)[O-])cc1 [Compound 1r, 2-oxo-2-(2-oxopyrrolidin-1-yl)ethyl 4-nitrobenzoate]",–,156.4 ± 1.7%,2.01 ± 0.18,–,positive modulators,156%,AC50 [1]: 55.5 ± 13.6 µM
"Cn1cnc2cc(C(=O)OCC(=O)N3CCCC3=O)ccc21 [Compound 1m, 2-oxo-2-(2-oxopyrrolidin-1-yl)ethyl 1-methyl-1H-benzo[d]imidazole-5-carboxylate]",82.2 ± 14.6 µM,–,1.52 ± 0.28,strongly reduced binding affinities,negative modulators,–,–
"O=C(OCCC(=O)N1CCCC1=O)c1ccc2ncsc2c1 [Compound 1u, 3-oxo-3-(2-oxopyrrolidin-1-yl)propyl benzo[d]thiazole-6-carboxylate]",–,–,–,completely abolished binding affinity,–,–,–
"O=C(OCC(=O)N1CCCC1=O)c1ccc2scnc2c1 [Compound 1p, 2-oxo-2-(2-oxopyrrolidin-1-yl)ethyl benzothiazole-5-carboxylate]",627 ± 49 µM,–,–,–,–,–,"IC50 [1, 4]: 626 µM"
"O=C(OCC(=O)N1CCCC1=O)c1ccc2cnccc2c1 [Compound 1n, 2-oxo-2-(2-oxopyrrolidin-1-yl)ethyl isoquinoline-6-carboxylate]",179 ± 10.5 µM,0.0 ± 2.0%,2.06 ± 0.15,strongly reduced binding affinities,negative modulators,–,–
"O=C(OCC(=O)N1CCCC1=O)c1ccc2occc2c1 [Compound 1j, 2-Oxo-2-(2-oxopyrrolidin-1-yl)ethyl benzofuran-5-carboxylate]",4.4 ± 2.2 µM,92.2 ± 0.6%,2.05 ± 0.12,–,silent allosteric modulators,92.2%,–

# Reference: PMC6509406 (Chembiochem : a European journal of chemical biology, 2018)
